{
  "source": "patent US11628164B2",
  "about": "“Composition containing salsolinol for treating liver cancer” (SUNGSHIN WOMEN'S UNIVERSITY R&DB FOUNDATION, priority 2020, dated 2023)",
  "key": {"SNU387": {"test_system": "SNU387", "test": "MTT cell viability, female-derived liver cancer cell line", "assay_type": "cell-based, human", "settings": "SNU387, 5-100 μM salsolinol, 24, 48, 72 hours", "experimental": "(§1) SK-Hep1 and SNU387, which are human-derived hepatoma cell lines, are distributed from Korea Cell Line Bank. […] The SK-Hep1 and the SNU387 are cultured in a medium including a minimum essential medium (Dulbecco Modified Eagle Medium, DMEM) (Gibco BRL grand Island, N.Y., USA) and in a medium containing 10% FBS (HyClone Lab, Inc, Logan, Utah, USA), 100 U/ml penicillin. (penicillin) and 100 μg/ml streptomycin (Gibco, Grand Island, N.Y., USA) at 37° C. in an atmosphere of 5% CO2. The cultured liver cancer cell lines (SK-HEP1 and SNU387) are dispensed into each well of a 48-well plate so as to have a concentration of 5×10^4 cells. After culturing for 24 hours, the sample is treated with the salsolinol for 24 hours, 48 hours, and 72 hours so as to have a concentration of 5 μM, 15 μM, 25 μM, 50 μM, or 100 μM. After that, 250 μl of 0.5 mg/ml MTT solution (Sigma, St Louis, Mo., US) is added to each well and reacted at 37° C. for 1 hour. After removing the solution, MTT-formazione is lysed and washed with 250 μl of DMSO (Dimethylsulfoxide, Duksan, Gyeonggi, Korea), and then, the absorbance at 540 nm is measured by using a SpectraMax 190 microplate plate reader (Molecular Devices, LCC. San Jose, Calif.). […]"}, "[1]": {"test_system": "AKT, p-AKT, Annexin A2, PCNA in liver tissue", "test": "Western blotting of liver tissue, DEN-induced liver cancer mouse model", "assay_type": "in vivo, C57BL/6 mouse", "settings": "DEN+SAL liver tissue", "experimental": "5×10^5 cells of Human-derived liver cancer cell lines SK-Hep1 and SNU387 are cultured in a 60 mm culture vessel, the cells are lysed, and proteins are separated through electrophoresis. And after that, western blotting analysis is performed by using a specific antibody. After treatment of the SK-Hep1 and the SNU387 with the salsolinol at different times and concentrations, the cells are washed with PBS, and the cells are scraped off with a scraper. The cells are lysed in a lysis buffer for 1 hour, and after that, centrifuge separation is performed at 13,000 rpm for 15 minutes at 4° C., and only the supernatant is extracted. 20 μg of protein contained in the supernatant is electrophoresed on SDS-polyacrylamide gel, and after that, transferred to a PVDF membrane for 2 hours. The sample reacts with antibodies pSTAT3(#9145), STAT3(#9132), PCNA(#2586), 15-PGDH(cayman No. 160615), p53(sc-126), p53(sc-99), pAKT(#9271), AKT(#9272), Annexin A2(#8235), and GAPDH(sc-32233). The protein is detected by using an enhanced chemiluminascence (ECL) detection solution.\nThe salsolinol (200 mg/kg) is administered for 6 months through intraperitoneal injection three times per week from the time when the DEN-induced liver cancer mouse model (male) became 7 weeks of age. After the mouse is sacrificed, the experiment is performed.\nThe normal mouse, the DEN-induced liver cancer mouse model, and the DEN-induced liver cancer mouse model administered with the salsolinol are sacrificed, the livers are excised, the liver tissues are crushed, and the proteins are extracted. After separating the extracted protein through electrophoresis, the expression levels of tumor-related genes AKT, p-AKT, Annexin A2, and PCNA and the changes in the expression levels are analyzed by using a Western blotting method (refer to FIG. 9)."}, "SK-Hep1 [2]": {"test_system": "SK-Hep1", "test": "Cell migration assay (culture-insert gap)", "assay_type": "cell-based, human", "settings": "25 μM salsolinol", "experimental": "A culture-insert (Ibidi; Martinsried, Germany) is attached to a 24-well plate to make a 500 μm interval, and then the cultured liver cancer cell lines (SK-Hep1) are dispensed so as to have a concentration of 1.5×10^5 cells. And the culturing is performed for 24 hours. After detaching the insert from the plate, each well is treated with the salsolinol so as to have a concentration of 25 μM. After the culturing is performed for 24 hours and for 48 hours, and the sample is photographed by a microscope to check the ability of migrating cells. The SK-Hep1 cells are dispensed into the culture-insert so as to have a concentration of 1.5×10^5 cells, and the culturing is performed for 24 hours. After detaching the insert from the plate, each well is treated with the salsolinol so as to have a concentration of 25 μM. After the culturing is performed for 24 hours and 48 hours, and the sample is photographed by a microscope to check the cell migration ability (refer to FIG. 3). […] When the culturing is performed for 48 hours, a large number of SK-Hep1 cells are migrated, and it is confirmed that the scratch disappears."}, "SK-Hep1 [3]": {"test_system": "SK-Hep1", "test": "MTT cell viability, male-derived liver cancer cell line", "assay_type": "cell-based, human", "settings": "SK-Hep1, 5-100 μM salsolinol", "experimental": "as §1"}},
  "data": [
    {"smiles": "CC1NCCc2cc(O)c(O)cc21", "note": "(centres unmarked) [salsolinol, 6,7-dihydroxy-1-methyl-1,2,3,4-tetrahydroisoquinoline]", "values": [
      {"measurement": "cell viability (MTT)", "setting": "SNU387", "result": "cell viability is not decreased"},
      {"measurement": "Annexin A2 expression level", "setting": "[1]", "result": "decreased"},
      {"measurement": "PCNA expression level", "setting": "[1]", "result": "decreased to the level of the normal mouse"},
      {"measurement": "degree of phosphorylation of AKT (p-AKT)", "setting": "[1]", "result": "decreased to the level of the normal mouse"},
      {"measurement": "cell migration ability", "setting": "SK-Hep1 [2]; 24 hours", "result": "some cells are migrated, but the scratch portion is clearly distinguished"},
      {"measurement": "cell migration ability", "setting": "SK-Hep1 [2]; 48 hours", "result": "scratch portion does not disappear"},
      {"measurement": "cell viability (MTT)", "setting": "SK-Hep1 [3]; 48 and 72 hours", "result": "degree of decrease in cell viability according to the treatment concentration of salsolinol increases"},
      {"measurement": "cell viability (MTT)", "setting": "SK-Hep1 [3]; 24 hours", "result": "cell viability decreases as the concentration of salsolinol increases"}
    ]}
  ]
}
